{
  "source": "patent US10507206B2",
  "about": "“Oral formulations and lipophilic salts of methylnaltrexone” (Wyeth, LLC, priority 2010, dated 2019)",
  "key": {"[1]": {"settings": "intravenous 0.01-0.37 mg/kg, methadone maintenance patients; cited from earlier work"}, "[2]": {"tested_on": "constipation in methadone maintenance patients", "settings": "intravenous 0.01-0.37 mg/kg; cited from earlier work"}, "[3]": {"settings": "oral, in general; cited from earlier work"}, "[4]": {"experiment": "apparent octanol-water partition coefficient (APC) of MNTX salts by HPLC", "assay_type": "physicochemical", "settings": "1-octanol/water, aqueous phase pH between 4.5 and 6.8; for Log P: room temperature; for APC: shaken overnight at room temperature", "text": "The term “apparent partition coefficient,” as used herein, refers to the ratio of concentrations of a compound in any form in the two phases of a mixture of two immiscible solvents at equilibrium. In certain embodiments, the two immiscible solvents are octanol and water. The apparent partition coefficient may be determined under various conditions, for example, temperature, pH, concentration, etc. Apparent partition coefficients have been found useful in estimating the distribution of compounds in the body. Higher apparent partition coefficients denote a more hydrophobic (more lipophilic) compound, while lower apparent partition coefficients denote a hydrophilic compound. The apparent partition coefficient of a compound may be determined by procedures known in the art, for example, in the U.S. Pharmacopeia. The apparent partition coefficient may be determined by the procedure used to determine the apparent partition coefficients of methylnaltrexone dodecyl sulfate and methylnaltrexone heptyl sulfate in the Examples.\nAs a measure of lipophilicity of the resulting ion pair, a solution of the composition yields an apparent octanol/water partition coefficient for methylnaltrexone of at least 0.25 at a pH between 1 and 4. The apparent octanol/water partition coefficient as used herein is determined at room temperature at a concentration of approximately 0.5 mg/mL. Exemplary methods for the determination of apparent octanol/water partition coefficient of methylnaltrexone salts are described in the Examples below.\nIon pairs of methylnaltrexone with amphiphilic pharmaceutically acceptable excipients were prepared and the apparent octanol-water partition coefficient (APC) was measured and compared to that of methylnaltrexone bromide. A pre-determined amount of each of MNTX-heptyl sulfate and MNTX-dodecyl sulfate was dissolved in 2 mL of 1-octanol that was saturated with water. Two mL of water that was saturated with 1-octanol was added to each MNTX salt solution. The mixtures were shaken overnight at room temperature, and 1 mL of the 1-octanol phase was then diluted to 10 mL with the mobile phase used for chromatographic (HPLC) analysis of the samples. And 1 mL of the aqueous phase was diluted to 5 mL with the mobile phase. The samples were then analyzed by HPLC to determine the apparent partition coefficient and log P for each MNTX salt. The pH of the aqueous phases for each of the salts was between 4.5 and 6.8."}, "[5]": {"settings": "reported value for comparison; cited from earlier work"}},
  "data": [
    {"compound": "C[N+]1(CC2CC2)CC[C@]23c4c5ccc(O)c4O[C@H]2C(=O)CC[C@@]3(O)[C@H]1C5", "note": "(stereo partly drawn) [methylnaltrexone, (R)—N-methylnaltrexone]", "values": [
      {"measurement": "average peak plasma levels", "setting": "[1]", "value": 162, "unit": "ng/mL"},
      {"measurement": "peak plasma levels, range", "setting": "[1]", "value": "30 to 774", "unit": "ng/mL"},
      {"measurement": "laxation", "setting": "[2]", "value": "induced “immediate” laxation"},
      {"measurement": "methylnaltrexone absorbed into the bloodstream when delivered orally", "setting": "[3]", "value": "less than 5%"}
    ]},
    {"compound": "methylnaltrexone dodecyl sulfate [MNTX-dodecyl sulfate]", "values": [
      {"measurement": "Log P", "setting": "[4]", "value": 1.505},
      {"measurement": "APC", "setting": "[4]", "value": 32.014}
    ]},
    {"compound": "CCCCCCCOS(=O)(=O)[O-].C[N+]1(CC2CC2)CCC23c4c5ccc(O)c4OC2C(=O)CCC3(O)C1C5", "note": "(stereo not shown) [MNTX-heptyl sulfate, methylnaltrexone heptyl sulfate]", "values": [
      {"measurement": "Log P", "setting": "[4]", "value": 0.292},
      {"measurement": "APC", "setting": "[4]", "value": 1.961}
    ]},
    {"compound": "C[N@+]1(CC2CC2)CC[C@]23c4c5ccc(O)c4O[C@H]2C(=O)CC[C@@]3(O)[C@H]1C5.[Br-]", "note": "[MNTX, (R)—N-(cyclopropylmethyl) noroxymorphone methobromide]", "values": [
      {"measurement": "reported Log P", "setting": "[5]", "value": "−1.605"},
      {"measurement": "reported partition coefficient", "setting": "[5]", "value": 0.025}
    ]}
  ]
}
